Where two headings read alike, the source gives them in different places.
Experiments:
Type in all cases: biochemical
DAPK1 = DAPK1 (Homo sapiens, UniProt P53355); assay: Kinase profiling DAPK1; conditions: for remaining activity at 100 µM: read-out: residual kinase activity, DAPK1
Source text: (§1) Any value less that 25 is considered to be highly significant inhibition.

CHK1 = molecular target: T1, CHK1 (Homo sapiens, UniProt O14757); assay: Kinase profiling CHK1; conditions: for remaining activity at 100 µM: read-out: residual kinase activity, CHK1
T1 sequence (O14757 1-476): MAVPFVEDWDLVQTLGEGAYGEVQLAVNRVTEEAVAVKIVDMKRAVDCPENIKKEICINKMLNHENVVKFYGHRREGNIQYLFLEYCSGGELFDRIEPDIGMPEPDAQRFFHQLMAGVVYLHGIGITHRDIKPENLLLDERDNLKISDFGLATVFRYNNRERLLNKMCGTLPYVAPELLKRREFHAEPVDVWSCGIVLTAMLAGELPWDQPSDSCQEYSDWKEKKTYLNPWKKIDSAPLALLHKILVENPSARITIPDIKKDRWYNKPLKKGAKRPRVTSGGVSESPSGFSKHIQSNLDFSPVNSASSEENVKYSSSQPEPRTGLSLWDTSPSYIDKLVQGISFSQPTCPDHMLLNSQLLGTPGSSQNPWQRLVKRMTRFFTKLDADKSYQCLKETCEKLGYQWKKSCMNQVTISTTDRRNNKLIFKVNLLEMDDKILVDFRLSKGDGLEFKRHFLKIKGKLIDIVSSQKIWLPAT
Source text: as §1

IKKe = molecular target: T2, IKKe (Homo sapiens, UniProt Q14164); assay: Kinase profiling IKKe; conditions: for remaining activity at 100 µM: read-out: residual kinase activity, IKKe
T2 sequence (Q14164 1-716): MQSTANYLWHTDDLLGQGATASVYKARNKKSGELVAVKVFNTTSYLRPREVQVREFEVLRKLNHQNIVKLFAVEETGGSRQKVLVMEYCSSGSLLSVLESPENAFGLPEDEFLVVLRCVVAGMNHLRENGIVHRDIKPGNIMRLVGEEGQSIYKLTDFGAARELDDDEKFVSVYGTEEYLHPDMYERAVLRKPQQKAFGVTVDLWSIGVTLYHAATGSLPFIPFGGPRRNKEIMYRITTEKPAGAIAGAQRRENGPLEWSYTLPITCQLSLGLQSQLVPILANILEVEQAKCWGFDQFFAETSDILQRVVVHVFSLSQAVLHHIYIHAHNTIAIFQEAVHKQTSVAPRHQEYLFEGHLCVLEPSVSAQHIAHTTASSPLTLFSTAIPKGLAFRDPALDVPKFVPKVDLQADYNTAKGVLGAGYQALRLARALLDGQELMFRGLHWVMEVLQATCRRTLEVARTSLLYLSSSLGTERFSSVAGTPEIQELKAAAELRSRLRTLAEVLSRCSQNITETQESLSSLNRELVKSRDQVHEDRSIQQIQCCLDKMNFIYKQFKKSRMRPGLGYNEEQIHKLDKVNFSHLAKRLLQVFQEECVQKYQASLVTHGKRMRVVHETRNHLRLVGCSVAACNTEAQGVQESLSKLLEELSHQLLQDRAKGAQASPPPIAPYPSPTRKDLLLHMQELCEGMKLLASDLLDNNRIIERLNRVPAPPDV
Source text: as §1

PIM2 = PIM2 (Homo sapiens, UniProt Q9P1W9); assay: Kinase profiling PIM2; conditions: for remaining activity at 100 µM: read-out: residual kinase activity, PIM2
Source text: as §1

EPH-B4 = molecular target: T3, EPH-B4 (Homo sapiens, UniProt P54760); assay: Kinase profiling EPH-B4; conditions: for remaining activity at 100 µM: read-out: residual kinase activity, EPH-B4
T3 sequence (P54760 16-987): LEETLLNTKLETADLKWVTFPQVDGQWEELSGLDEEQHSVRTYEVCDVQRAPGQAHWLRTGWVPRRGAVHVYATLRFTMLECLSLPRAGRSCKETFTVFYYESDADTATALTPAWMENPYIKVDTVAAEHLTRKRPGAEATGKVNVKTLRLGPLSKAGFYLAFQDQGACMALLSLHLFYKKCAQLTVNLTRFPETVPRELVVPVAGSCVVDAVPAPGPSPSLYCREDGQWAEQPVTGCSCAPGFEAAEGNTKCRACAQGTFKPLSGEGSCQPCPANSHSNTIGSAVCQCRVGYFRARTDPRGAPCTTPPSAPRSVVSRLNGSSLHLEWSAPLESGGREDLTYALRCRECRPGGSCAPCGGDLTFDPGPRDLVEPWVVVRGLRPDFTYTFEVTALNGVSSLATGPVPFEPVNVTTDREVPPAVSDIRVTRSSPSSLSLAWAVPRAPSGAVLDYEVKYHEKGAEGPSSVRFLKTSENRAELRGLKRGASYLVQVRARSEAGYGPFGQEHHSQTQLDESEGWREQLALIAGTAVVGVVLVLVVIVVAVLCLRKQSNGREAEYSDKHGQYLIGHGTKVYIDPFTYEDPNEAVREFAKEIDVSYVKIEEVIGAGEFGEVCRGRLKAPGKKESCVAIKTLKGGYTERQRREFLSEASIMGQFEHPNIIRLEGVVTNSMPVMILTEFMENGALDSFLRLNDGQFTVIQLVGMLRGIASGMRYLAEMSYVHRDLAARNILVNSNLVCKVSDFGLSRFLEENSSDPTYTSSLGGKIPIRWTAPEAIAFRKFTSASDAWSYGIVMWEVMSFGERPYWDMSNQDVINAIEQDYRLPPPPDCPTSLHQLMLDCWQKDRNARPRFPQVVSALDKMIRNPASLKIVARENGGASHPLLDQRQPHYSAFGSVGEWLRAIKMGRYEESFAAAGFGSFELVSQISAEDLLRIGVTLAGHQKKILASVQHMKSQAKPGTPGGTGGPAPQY
Source text: as §1

TTBK2 = TTBK2 (Homo sapiens, UniProt Q6IQ55); assay: Kinase profiling TTBK2; conditions: for remaining activity at 100 µM: read-out: residual kinase activity, TTBK2
Source text: as §1

[1] = 100 micromolar inhibitor concentration, 100 is no change
[2] = 100 micromolar inhibitor, 100 = no change

Sequence of TTBK2 (Q6IQ55 whole entry, species assumed): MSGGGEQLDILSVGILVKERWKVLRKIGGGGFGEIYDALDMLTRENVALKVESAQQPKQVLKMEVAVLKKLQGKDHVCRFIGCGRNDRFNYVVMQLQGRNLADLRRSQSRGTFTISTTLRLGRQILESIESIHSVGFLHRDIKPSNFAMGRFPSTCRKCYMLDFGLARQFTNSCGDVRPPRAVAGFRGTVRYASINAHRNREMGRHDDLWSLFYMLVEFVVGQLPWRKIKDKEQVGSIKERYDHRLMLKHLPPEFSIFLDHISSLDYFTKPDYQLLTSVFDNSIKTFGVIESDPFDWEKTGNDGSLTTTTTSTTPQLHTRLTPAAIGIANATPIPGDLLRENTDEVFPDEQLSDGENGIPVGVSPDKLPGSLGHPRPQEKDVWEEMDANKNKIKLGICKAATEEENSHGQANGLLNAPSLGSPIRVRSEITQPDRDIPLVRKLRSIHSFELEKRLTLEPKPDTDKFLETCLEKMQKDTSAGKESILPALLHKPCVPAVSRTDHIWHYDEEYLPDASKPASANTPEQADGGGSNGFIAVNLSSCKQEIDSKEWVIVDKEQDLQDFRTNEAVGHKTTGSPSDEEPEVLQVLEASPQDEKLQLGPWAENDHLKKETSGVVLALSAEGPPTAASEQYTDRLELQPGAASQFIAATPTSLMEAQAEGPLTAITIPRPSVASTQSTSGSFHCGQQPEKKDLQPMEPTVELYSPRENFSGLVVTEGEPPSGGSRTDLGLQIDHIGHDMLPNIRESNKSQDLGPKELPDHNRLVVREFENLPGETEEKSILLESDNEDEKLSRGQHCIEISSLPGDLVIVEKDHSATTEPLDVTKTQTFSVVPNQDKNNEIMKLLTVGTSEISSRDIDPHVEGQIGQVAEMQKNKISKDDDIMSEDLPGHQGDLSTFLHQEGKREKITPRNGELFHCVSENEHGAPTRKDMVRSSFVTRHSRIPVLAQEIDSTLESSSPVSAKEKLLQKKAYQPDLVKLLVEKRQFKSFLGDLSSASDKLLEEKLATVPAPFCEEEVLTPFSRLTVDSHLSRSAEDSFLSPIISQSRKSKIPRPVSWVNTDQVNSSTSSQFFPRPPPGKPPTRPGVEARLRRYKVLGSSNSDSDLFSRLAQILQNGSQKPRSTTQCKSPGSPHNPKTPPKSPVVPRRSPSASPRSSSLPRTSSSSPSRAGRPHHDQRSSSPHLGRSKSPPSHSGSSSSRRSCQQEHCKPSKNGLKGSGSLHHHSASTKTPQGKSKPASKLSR
Sequence of DAPK1 (P53355 whole entry, species assumed): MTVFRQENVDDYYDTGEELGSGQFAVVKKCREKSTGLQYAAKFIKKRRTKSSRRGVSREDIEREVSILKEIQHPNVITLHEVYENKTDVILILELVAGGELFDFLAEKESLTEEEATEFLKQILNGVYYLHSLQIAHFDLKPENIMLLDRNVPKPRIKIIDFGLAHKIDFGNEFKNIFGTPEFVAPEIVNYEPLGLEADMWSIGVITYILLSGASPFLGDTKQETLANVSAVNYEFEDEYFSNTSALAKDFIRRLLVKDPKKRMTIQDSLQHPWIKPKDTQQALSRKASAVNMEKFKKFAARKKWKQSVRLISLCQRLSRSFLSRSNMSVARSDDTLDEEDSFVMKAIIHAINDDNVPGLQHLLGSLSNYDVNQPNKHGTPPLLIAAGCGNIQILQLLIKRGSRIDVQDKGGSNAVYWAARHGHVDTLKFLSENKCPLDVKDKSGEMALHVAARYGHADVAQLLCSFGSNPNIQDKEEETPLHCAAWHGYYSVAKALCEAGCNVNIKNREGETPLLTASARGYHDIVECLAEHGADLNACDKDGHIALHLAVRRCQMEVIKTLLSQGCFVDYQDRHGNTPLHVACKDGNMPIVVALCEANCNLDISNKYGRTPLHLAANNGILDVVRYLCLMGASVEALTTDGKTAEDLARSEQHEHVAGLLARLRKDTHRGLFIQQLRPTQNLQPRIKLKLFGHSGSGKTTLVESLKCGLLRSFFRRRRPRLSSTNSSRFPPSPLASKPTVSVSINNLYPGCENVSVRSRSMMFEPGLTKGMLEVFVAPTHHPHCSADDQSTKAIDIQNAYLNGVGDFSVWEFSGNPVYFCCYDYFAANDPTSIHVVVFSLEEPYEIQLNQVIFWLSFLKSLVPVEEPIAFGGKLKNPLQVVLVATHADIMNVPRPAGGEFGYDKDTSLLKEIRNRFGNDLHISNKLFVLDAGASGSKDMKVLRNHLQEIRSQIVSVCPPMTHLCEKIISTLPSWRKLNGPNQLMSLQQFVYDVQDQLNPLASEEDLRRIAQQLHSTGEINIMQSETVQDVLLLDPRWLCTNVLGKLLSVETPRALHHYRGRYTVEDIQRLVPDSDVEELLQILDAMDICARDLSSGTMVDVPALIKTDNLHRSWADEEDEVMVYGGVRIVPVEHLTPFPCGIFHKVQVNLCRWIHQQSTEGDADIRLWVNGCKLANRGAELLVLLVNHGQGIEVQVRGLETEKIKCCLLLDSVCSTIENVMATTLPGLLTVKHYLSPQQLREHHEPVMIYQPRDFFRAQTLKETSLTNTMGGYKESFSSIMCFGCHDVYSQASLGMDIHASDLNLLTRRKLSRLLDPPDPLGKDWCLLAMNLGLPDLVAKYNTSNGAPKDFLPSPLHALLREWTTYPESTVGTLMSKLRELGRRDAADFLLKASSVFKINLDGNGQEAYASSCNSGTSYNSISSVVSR
Sequence of PIM2 (Q9P1W9 whole entry, species assumed): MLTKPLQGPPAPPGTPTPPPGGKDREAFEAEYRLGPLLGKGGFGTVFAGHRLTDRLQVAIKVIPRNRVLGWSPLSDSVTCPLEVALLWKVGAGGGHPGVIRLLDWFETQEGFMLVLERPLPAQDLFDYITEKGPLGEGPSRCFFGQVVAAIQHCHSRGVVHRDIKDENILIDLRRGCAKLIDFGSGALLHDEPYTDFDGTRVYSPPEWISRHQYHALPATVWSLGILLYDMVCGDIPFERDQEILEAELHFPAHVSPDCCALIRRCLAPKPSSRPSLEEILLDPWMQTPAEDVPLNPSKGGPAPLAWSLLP

| SMILES | remaining activity at 100 µM (DAPK1; [1]) [%] | remaining activity at 100 µM (CHK1; [1]) [%] | remaining activity at 100 µM (IKKe; [1]) [%] | remaining activity at 100 µM (PIM2; [1]) [%] | remaining activity at 100 µM (EPH-B4; [1]) [%] | residual kinase activity, DAPK1 (DAPK1; [1]) | residual kinase activity, CHK1 (CHK1; [1]) | residual kinase activity, TTBK2 (TTBK2; [1]) | residual kinase activity, IKKe (IKKe; [1]) | residual kinase activity, PIM2 (PIM2; [1]) | residual kinase activity, EPH-B4 (EPH-B4; [1]) | other results |
| --- | --- | --- | --- | --- | --- | --- | --- | --- | --- | --- | --- | --- |
| CC(=O)Nc1nc2cc(O)ccc2s1 [Compound 01-66, N-(5-hydroxybenzo[d]thiazol-2-yl)acetamide] |  |  |  |  |  |  |  |  |  |  |  | remaining activity at 100 µM (DAPK1): 44%; remaining activity at 100 µM (CHK1): 75%; remaining activity at 100 µM (IKKe): 68%; remaining activity at 100 µM (PIM2): 16%; remaining activity at 100 µM (EPH-B4): 83% |
| CC(=O)Nc1nc2ccc(O)cc2s1 [Compound 01-71] | 21 | 82 | 58 | 38 | 98 |  |  |  |  |  |  |  |
| CC(=O)Nc1nc2ccc(C(F)(F)F)cc2s1 [Compound 01-90] | 85 | 97 | 81 | 94 | 55 |  |  |  |  |  |  | remaining activity at 100 µM (TTBK2; [1]): 98% |
| CC(=O)Nc1nc2ccc(C#N)cc2s1 [Compound 01-94] | 41 | 96 | 64 | 73 | 62 |  |  |  |  |  |  | remaining activity at 100 µM (TTBK2; [1]): 78% |
| CC(=O)Nc1cccc(NC(=O)c2nc3ccc(O)cc3s2)c1 [Compound 03-07, N-(3-acetamidophenyl)-6-hydroxybenzo[d]thiazole-2-carboxamide] |  |  |  |  |  |  |  |  |  |  |  | remaining activity at 100 µM (DAPK1; [2]): 28%; remaining activity at 100 µM (CHK1; [2]): 113%; remaining activity at 100 µM (TTBK2; [2]): 71%; remaining activity at 100 µM (IKKe; [2]): 73%; remaining activity at 100 µM (PIM2; [2]): 61%; remaining activity at 100 µM (EPH-B4; [2]): 100% |
| O=C(Nc1nc2cc(O)ccc2s1)c1ccncc1 [Compound 03-11] |  |  |  |  |  | 62 | 78 | 99 | 69 | 89 | 97 |  |
| O=C(Nc1nc2ccc(O)cc2s1)c1ccccn1 [Compound 03-12] |  |  |  |  |  | 25 | 90 | 102 | 78 | 75 | 84 |  |
| O=C(Nc1nc2cc(O)ccc2s1)c1ccccn1 [Compound 03-13] |  |  |  |  |  | 58 | 88 | 71 | 63 | 77 | 88 |  |
| COc1ccc2sc(NC(C)=O)nc2c1 [Compound 03-21] | 79 | 110 | 91 | 48 | 98 |  |  |  |  |  |  | remaining activity at 100 µM (TTBK2; [1]): 84% |
| CC(=O)Nc1nc2ccccc2s1 [Compound 03-32] |  |  |  |  |  | 89 | 105 | 85 | 109 | 100 | 99 |  |
| O=C(Nc1nc2cc(O)ccc2s1)c1cccnc1 [Compound 03-33] |  |  |  |  |  | 82 | 106 | 102 | 81 | 69 | 106 |  |
| O=C(Nc1nc2ccc(O)cc2s1)c1ccccc1 [Compound 03-60] |  |  |  |  |  | 19 | 72 | 44 | 27 | 67 | 110 |  |
| CC(=O)Nc1nc2cc(C(F)(F)F)ccc2s1 [Compound 03-73] | 93 | 110 | 93 | 63 | 101 |  |  |  |  |  |  | remaining activity at 100 µM (TTBK2; [1]): 91% |
| CC(=O)Nc1nc2cc(C)ccc2s1 [Compound 03-76] |  |  |  |  |  | 82 | 102 | 97 | 89 | 82 | 109 |  |
| CC(=O)Nc1nc2cc(F)ccc2s1 [Compound 03-77] | 82 | 103 | 91 | 62 | 112 |  |  |  |  |  |  | remaining activity at 100 µM (TTBK2; [1]): 93% |
| O=C(Nc1nc2ccc(O)cc2s1)c1ccncc1 [Compound 08-42] |  |  |  |  |  | 32 | 70 | 74 | 47 | 90 | 92 |  |
| O=C(Nc1nc2ccc(O)cc2s1)c1cccnc1 [Compound 08-44] |  |  |  |  |  | 26 | 78 | 51 | 50 | 76 | 100 |  |
